This is an account of results in paper PMC3618516, “A Systematic Screen of FDA-Approved Drugs for Inhibitors of Biological Threat Agents” (PLoS ONE, 2013).

Read-outs that look alike come from different tables or passages of the source.

In data set [1] the test system is MARV GP-pseudotyped vesicular stomatitis virus. The data set can be described thus: microbe, parasite or virus in culture. Format: cell-based, Marburg virus. The note with it: Vesicular stomatitis virus; for EC50: read-out: EC50, MARV Entry; for EC90: read-out: EC90, MARV Entry.
In data set [2] the test system is EBOV GP-pseudotyped vesicular stomatitis virus. As to the kind of experiment: microbe, parasite or virus in culture. The data set is classed as cell-based, Ebola virus. The following applies: Zaire ebolavirus; for EC50: read-out: EC50, EBOV Entry; for EC90: read-out: EC90, EBOV Entry.
The subject of data set [3] is Francisella tularensis. As to the kind of experiment: microbe, parasite or virus in culture. The following applies: J774.A1, 15 h, read-out: Fransciella tularensis ICR (% protection). Format: cell-based.
In data set [4] the test system is Bacillus anthracis. The data set is classed as cell-based. The note with it: 50 µM.
Data set [5] has as its system EBOV. The data set is classed as cell-based, Ebola virus.
For data set [6], the system named is Bacillus anthracis. As to the kind of experiment: microbe, parasite or virus in culture. The data set is classed as cell-based. The following applies: J774.A1, 15 h, read-out: Bacillus anthracis ICR (% protection).
Data set [7] deals with Bacillus anthracis. Further details: species or system Balb/c mice. The following applies: in vivo.
The test system of the next data set is LASV. The data set is classed as cell-based, Lassa virus.
Data set [8] has as its system LASV GP-pseudotyped vesicular stomatitis virus. The data set can be described thus: microbe, parasite or virus in culture. Format: cell-based, Lassa virus.
The subject of data set [9] is Francisella tularensis. Format: cell-based. The note with it: 50 µM.
The next data set has as its system Coxiella burnetii. The data set can be described thus: microbe, parasite or virus in culture. The data set is classed as cell-based. The note with it: Vero, 168 h, read-out: Coxiella burnetii ICR (% protection).
For data set [10] the following is noted: cited from earlier work.
Data set [11] has as its system EBOV. The data set can be described thus: microbe, parasite or virus in culture. The following applies: Zaire ebolavirus; for EC50: read-out: EC50, EBOV Replication; for EC90: read-out: EC90, EBOV Replication. The data set is classed as cell-based, Ebola virus.
Another data set deals with MARV. The data set can be described thus: organism not typed. The data set is classed as cell-based, Marburg virus. The following applies: for EC50: read-out: EC50, MARV Replication; for EC90: read-out: EC90, MARV Replication.
Data set [12] deals with EBOV virus-like particles. The data set is classed as cell-based, Ebola virus.
Data set [13] has as its system EBOV. Format: cell-based, Ebola virus. The source holds these as a separate data set.
For data set [14] the following is noted: mouse, in vivo.
A short description of another data set: in vivo. The note with it: male, Balb/c, mouse, ip, 90 mg/kg.
[15] abbreviates: HEK-293T, read-out: MASV VPEN (% activity).
The mark [16] stands for this setting: HEK-293T, read-out: EBOV VPEN (% activity).
Setting [17] is: Vesicular stomatitis virus, HEK-293T, 50 µM, read-out: LASV VPEN (% activity).

`CC[C@H]1OC(=O)[C@H](C)[C@@H](O[C@H]2C[C@@](C)(OC)[C@@H](O)[C@H](C)O2)[C@H](C)[C@@H](O[C@@H]2O[C@H](C)C[C@H](N(C)C)[C@H]2O)[C@](C)(O)C[C@@H](C)[C@@H]2N[C@@H](COCCOC)O[C@H]([C@H]2C)[C@]1(C)O` [Dirithromycin]: the inhibition at 50 µM was 91% in data set [1] (setting [15]); 99% in [2] (setting [16]); 88% with Francisella tularensis [3]; 92% with Bacillus anthracis [6]; -11% in [8] (setting [17]). Also, the “Bacillus anthracis Broth (% protection)” value with Bacillus anthracis [4] is “+”. The “EBOV VR” value with EBOV [5] (50 µM) is “−”. The “protection of mice against BA infection (% of the mice)” value in the data set on Bacillus anthracis [7] (mouse) came out at 20%. Also, the “LASV VR” value with LASV (50 µM) is on record as “−”. In addition, the “LASV VPEN (% activity)” value in data set [8] (50 µM) is listed as “no activity”. Besides, in the data set on Francisella tularensis [9], the “Fransciella tularensis Broth (% protection)” value is “+”. For the same compound, the inhibition of growth at 50 µM with Coxiella burnetii came to 0%.
Take `CCn1cc(C(=O)O)c(=O)c2cc(F)c(N3CCNC(C)C3)c(F)c21` (stereo not shown) [Lomefloxacin]: the inhibition at 50 µM with Francisella tularensis [3] came to 98%; with Bacillus anthracis [6], 95%. The “Bacillus anthracis Broth (% protection)” value with Bacillus anthracis [4] is on record as “+”. The “maximum concentration (Cmax)” value in data set [10] (following a 400 mg dose in humans) is 2000 to 4000 ng/mL. Besides, in data set [10] (humans), the bioavailability is 95–98%. Also, in the data set with Bacillus anthracis [7], the “efficacy in preventing mouse death following BA infection (rank)” value is listed as “most efficacious drug”. Also, the “Fransciella tularensis Broth (% protection)” value in the data set on Francisella tularensis [9] is reported as “+”. For the same compound, the inhibition of growth at 50 µM in the data set with Coxiella burnetii is 100%.
Turning to `CCn1cc(C(=O)O)c(=O)c2cc(F)c(N3CCNCC3)cc21` [Norfloxacin], the inhibition at 50 µM in the data set with Francisella tularensis [3] was 83%; in the data set on Bacillus anthracis [6], 105%. The “Bacillus anthracis Broth (% protection)” value with Bacillus anthracis [4] is on record as “+”. In addition, the Cmax (as a rule, the maximum level reached in the sampled fluid or tissue) in data set [10] (humans, dose not given) was 2000 ng/mL. In the data set with Francisella tularensis [9], the “Fransciella tularensis Broth (% protection)” value is recorded as “+”. Further, the inhibition of growth at 50 µM in the data set on Coxiella burnetii stood at 0%.
`CC[C@H]1OC(=O)[C@H](C)[C@@H](O[C@H]2C[C@@](C)(OC)[C@@H](O)[C@H](C)O2)[C@H](C)[C@@H](O[C@@H]2O[C@H](C)C[C@H](N(C)C)[C@H]2O)[C@](C)(OC)C[C@@H](C)C(=O)[C@H](C)[C@@H](O)[C@]1(C)O` [Clarithromycin]: in [10] (humans, no reference given), the bioavailable is reported as roughly 50%.
As for `CCN(CC)Cc1cc(Nc2ccnc3cc(Cl)ccc23)ccc1O` [Amodiaquine], the EC50 (usually the concentration that produces a half-maximal response) in the data set with EBOV [11] was 8.4 µM; in data set [1], 2.3 µM; in [2], 2.6 µM; in the data set with MARV, 8.3 µM. Besides, the EC90 (in general, the point of the concentration-response curve where the effect stands at 90%) was 17 µM in the data set on EBOV [11], 6.5 µM in [1], 8 µM in [2] and 16 µM in the data set with MARV. For the same compound, the inhibition at 10 µM in data set [1] (HEK-293T, 10 µM, read-out: MASV VPEN (% activity)) was found to be 97%; in data set [2] (HEK-293T, 10 µM, read-out: EBOV VPEN (% activity)), 99%; in data set [8] (Vesicular stomatitis virus, HEK-293T, 10 µM, read-out: LASV VPEN (% activity)), 51%. Moreover, the “EBOV VR” value with EBOV [5] (10 µM) is “−”. The “LASV VR” value in the data set with LASV (10 µM) is listed as “−”. Moreover, the “effect on number of VLPs bound per cell” value in [12] is given as “no significant difference in binding”.
In the case of `CCN(CCO)CCCC(C)Nc1ccnc2cc(Cl)ccc12` (stereo not shown) [HCQ, Hydroxychloroquine], the EC50 with EBOV [11] was found to be 22 µM; in data set [1], 9.8 µM; in [2], 9.5 µM; in the data set with MARV, 18 µM. In addition, the EC90 with EBOV [11] amounted to 32 µM; in [1] it was 52 µM; in data set [2] it was 85 µM; in the data set on MARV, 19 µM. Besides, in data set [12], the “effect on number of VLPs bound per cell” value is listed as “no significant difference in binding”.
As for `CCN(CC)CCCC(C)Nc1ccnc2cc(Cl)ccc12` (stereo not shown) [Chloroquine], in the data set with EBOV [11], the EC50 amounted to 16 µM and the EC90 is 25 µM. The “co-localization of virus particles with EEA1 / LAMP1” value in the data set on EBOV [13] was “most particles were now associated with EEA1 and very few particles were co-localized with LAMP1”. Moreover, in data set [1] (setting [15]), the inhibition at 50 µM was 97%. Moreover, in data set [1], the 50% effective concentration (EC50) stood at 5.5 µM and the EC90 was 24 µM. The inhibition at 50 µM in [2] (setting [16]) came to 97%. In [2], the EC50 came out at 4.7 µM and the EC90 is 43 µM. Also, in data set [14] (male, Balb/c), the “Apparent Css” value is recorded as ~ 2.5 μg/ml, the “apparent steady state concentration” value was 2,500 ng/mL and the “time to apparent steady state after initiating treatment” value was 35 to 40 h. The “survival of mice on repeat dosing (tolerability)” value in data set [14] is “all mice survived”. In the data set on MARV, the EC50 was found to be 15 µM and the EC90 turned out to be 21 µM. Besides, the “EBOV VR” value in the data set with EBOV [5] (50 µM) was “+”. Moreover, in “in vivo”, the AUC (as a rule, concentration integrated over time) worked out at 23000 ng·h/mL; the Tmax (as a rule, the time at which the peak concentration occurs) stood at 0.5 h; the half-life (in general, the time needed for the level to fall by half in the phase considered) is roughly 7 h. In “in vivo” (Cmax), this compound registered a Cmax of 5330 ng/mL. Also, the “LASV VR” value in the data set on LASV (50 µM) is “−”. In addition, in [8] (setting [17]), the inhibition at 50 µM came to 34%. In addition, the “effect on number of VLPs bound per cell” value in data set [12] is reported as “no significant difference in binding”.
